Read-outs that look alike come from different tables or passages of the source.
Tests used:
[1] = system: A549 cell line; assay: Proliferation of A549 (CellTiter Glo); format: cell-based; conditions: read-out: IC50 μM (A549 Cell Line)
Experimental: The diterpenoid compounds were tested in A549, a non-small cell lung cancer cell line harboring a K-Ras activating mutation. Briefly, A549 cells at a density of 1,000 cells/well were seeded in 96-well plates and incubated at 37° C. for 24 hours. A series of different concentrations of compound stocks (500×) were prepared by 3-fold serial dilution in DMSO. These compounds were further diluted in culture media and then added to cells so that the final DMSO concentration was not exceeding 0.25%. After 96 hours of incubation, 50 μL of CellTiter Glo reagent (Promega) was added to each well and luminescence was measured after 10 minutes using EnVision (PerkinElmer). Luminescence from cells treated with DMSO alone was set as Max and % of inhibition was calculated as follows: Inhibition %=(Max-Sample value)/Max×100. Data was analyzed using XL-fit software (ID Business Solutions Ltd.) and IC50, relative IC50, and % of top inhibition was calculated. Some of the compounds in this disclosure were very potent in blocking proliferation of A549 lung cancer cells at low nM range. In addition, potency of inhibiting A549 proliferation correlated well with its binding affinity to PKCs for this series of compounds. In other words, higher affinity binders had stronger inhibitory effects on A549 proliferation. This further support the notion that activation, rather than inhibition, of certain PKC isoforms is required to block proliferation of cancer cells, some of which may harbor K-Ras mutations. This is in sharp contrast to previous literature and common belief that inhibition of PKC is necessary to block cancer cell growth (Kang, 2014, New Journal of Science, 2014:1-36). Data presented here is in agreement with recent findings that many loss-of-function but not gain-of-function mutations of PKC isoforms have been identified in many human cancers (Antal et al., 2015, Cell, 160:489-502).

[2] = system: NFκB-driven transcription in HeLa-NFκB luciferase reporter cell line; assay: NFκB luciferase reporter assay; conditions: PKC inhibitor added at the same time as the PKC activator compounds
[3] = system: human PBMC cells; assay: Cytokine/chemokine gene expression in human PBMC (TaqMan); format: cell-based; conditions: 4 h, 1 μM;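 for Gene Relative Expression CCL2: 2^-ΔΔCt fold change vs DMSO control normalized to 18S and GAPDH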;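 for Gene Relative Expression GM-CSF: 2^-ΔΔCt fold change vs DMSO control normalized to 18S and GAPDH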;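 for Gene Relative Expression IFN-α: 2^-ΔΔCt fold change vs DMSO control normalized to 18S and GAPDH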;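 for Gene Relative Expression IFNγ: 2^-ΔΔCt fold change vs DMSO control normalized to 18S and GAPDH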
Experimental: Each treatment condition was performed in duplicates.

[4] = Homo sapiens, A549, 96 hours, CellTiter Glo

With `CSCC[C@H](N)C(=O)O[C@@]12C[C@@H](C)[C@@]3(O)[C@@H](C=C(CO)C[C@]4(O)C(=O)C(C)=C[C@@H]34)[C@@H]1C2(C)C` the IC50 ([1]; Homo sapiens, A549, 96 h) was 5 to 10 µM.
`CC1=C[C@H]2[C@@]3(O)[C@H](C)C[C@]4(OC(=O)[C@@H](N)CCCCCCc5ccccc5)[C@H]([C@@H]3C=C(COC(=O)[C@@H](N)C(C)C)C[C@]2(O)C1=O)C4(C)C` showed an IC50 [1, 4] of 0.01 to 0.03 µM.
`CCCCCCCCCCCCCCCCCCC(CC(=O)O[C@@]12C[C@@H](C)[C@@]3(O)[C@@H](C=C(CO)C[C@]4(O)C(=O)C(C)=C[C@@H]34)[C@@H]1C2(C)C)C(=O)O` (some centres unmarked) showed an IC50 ([1]; Homo sapiens, A549, 96 h) of 5 to 10 µM.
With `CC1=C[C@H]2[C@@]3(O)[C@H](C)C[C@]4(OC(=O)C(Cc5ccccc5)C(=O)O)[C@H]([C@@H]3C=C(CO)C[C@]2(O)C1=O)C4(C)C` (some centres unmarked) the IC50 ([1]; Homo sapiens, A549, 96 h) was 1 to 2 µM.
Work on `CC1=C[C@H]2[C@@]3(O)[C@H](C)C[C@]4(OC(=O)[C@H](O)Cc5ccccc5)[C@H]([C@@H]3C=C(CO)C[C@]2(O)C1=O)C4(C)C` yielded an IC50 ([1]; Homo sapiens, A549, 96 h) of 2 to 5 µM.
For `CC1=C[C@H]2[C@@]3(O)[C@H](C)C[C@]4(OC(=O)C[C@@H](N)c5ccccc5)[C@H]([C@@H]3C=C(CO)C[C@]2(O)C1=O)C4(C)C`, the IC50 ([1]; Homo sapiens, A549, 96 h) was 2 to 5 µM.
Compound `CC1=C[C@H]2[C@@]3(O)[C@H](C)C[C@]4(OC(=O)[C@H](CC5CCCCC5)N(C)C)[C@H]([C@@H]3C=C(CO)C[C@]2(O)C1=O)C4(C)C` has an IC50 ([1]; Homo sapiens, A549, 96 h) of 0.6 to 1 µM.
Work on `CC1=C[C@H]2[C@@]3(O)[C@H](C)C[C@]4(OC(=O)[C@H](N)C56CC(F)(C5)C6)[C@H]([C@@H]3C=C(CO)C[C@]2(O)C1=O)C4(C)C` yielded an IC50 ([1]; 96 hours, CellTiter Glo) of 10 to 30 µM.
Work on `CC1=C[C@H]2[C@@]3(O)[C@H](C)C[C@]4(OC(=O)[C@@H](N)C56CC(F)(C5)C6)[C@H]([C@@H]3C=C(CO)C[C@]2(O)C1=O)C4(C)C` yielded an IC50 ([1]; 96 hours, CellTiter Glo) of 10 to 30 µM.
For `CC1=C[C@H]2[C@@]3(O)[C@H](C)C[C@]4(OC(=O)[C@@H](N)C56CC(C(F)(F)F)(C5)C6)[C@H]([C@@H]3C=C(CO)C[C@]2(O)C1=O)C4(C)C`, the IC50 [1, 4] was 0.06 to 0.1 µM.
For `CC1=C[C@H]2[C@@]3(O)[C@H](C)C[C@]4(O)[C@H]([C@@H]3C=C(CO)C[C@]2(O)C1=O)C4(C)C`, the IC50 ([1]; Homo sapiens, A549, 96 h) was greater than 30 µM.
With `Cn1c2ccccc2c2c3c(c4c5ccccc5n(CCC#N)c4c21)CNC3=O` [Compound G66976, G66976, reference compound] the “block of NFκB activation induced by PKC activator compounds” value (“block of NFκB activation induced” below) [2] was “unable to block”.
`COc1ccc2c(c1)c(C1=C(c3c[nH]c4ccccc34)C(=O)NC1=O)cn2CCCN(C)C` [Gö6983, reference compound] was tested, and the “block of NFκB activation induced” value [2] was “completely block”.
For `CCOCc1nc2c(N)nc3ccccc3c2n1CC(C)(C)O` [Resiquimod, reference compound], the “Gene Relative Expression CCL2” value [3] was 3.73, the “Gene Relative Expression GM-CSF” value [3] was 8.79 and the “Gene Relative Expression IFN-α” value [3] was 1.47. For the same compound, the “Gene Relative Expression IFNγ” value [3] was 1.28, the “Gene Relative Expression IL-1β” value [3] was 101.63 and the “Gene Relative Expression IL-2” value [3] was 1.21. The “Gene Relative Expression IL-6” value [3] was 487.14, the “Gene Relative Expression IL-8” value [3] was 9.87 and the “Gene Relative Expression IL-10” value [3] was 5.65. The “Gene Relative Expression IL-12p40” value [3] was 786.39, the “Gene Relative Expression IL-12p70” value [3] was 2.48 and the “Gene Relative Expression IL-13” value [3] was 3.52. The “Gene Relative Expression IL-18” value [3] was 1.33, the “Gene Relative Expression ISG15” value [3] was 14.75 and the “Gene Relative Expression MIP1a (CCL3)” value [3] was 47.71. For the same compound, the “Gene Relative Expression MX1” value [3] was 17.00, the “Gene Relative Expression OAS1” value [3] was 12.66 and the “Gene Relative Expression TNF-α” value [3] was 7.38.
In the case of `CN1CCN(c2nc(C3=C(c4c[nH]c5ccccc45)C(=O)NC3=O)c3ccccc3n2)CC1` [Sotrastaurin, reference compound], the “block of NFκB activation induced” value [2] is reported as “completely block”.

— patent US20240197666A1, “DITERPENOID COMPOUNDS THAT ACT ON PROTEIN KINASE C (PKC)” (K-Gen Therapeutics, Inc., priority 2021, published 2024)
